Assay results published in ChEMBL document CHEMBL1221404, “Caylobolide B, a macrolactone from symplostatin 1-producing marine cyanobacteria Phormidium spp. from Florida” (J Nat Prod, 2010).

Tests used:
Type in all cases: functional, cell-based
HCT-116 = experiment: Cytotoxicity against human HCT116 cells
HT-29 = experiment: Cytotoxicity against human HT-29 cells after 48 hrs by MTT assay; details: HT-29, 48 h
HeLa = experiment: Cytotoxicity against human HeLa cells after 48 hrs by MTT assay

Row | Compound | AC50 (HCT-116) | IC50 (HT-29) [nM] | IC50 (HeLa) [µM]
1 | CCCCC(C)C1C[C@@H](O)CCC[C@H](O)C[C@@H](O)C[C@@H](O)CCCC(O)CCCC(O)CCCC(O)CCCC(O)CC(O)CCC/C(C)=C/C(=O)O1 (some centres undefined) [CAYLOBOLIDE A] | Active | – | –
2 | CCCCC(C)C1CC(O)CCC[C@H](O)C[C@@H](O)C[C@@H](O)CCCC(O)CCCC(O)CCCC(O)CCC[C@@H](O)C[C@@H](O)CCC/C(C)=C/C(=O)O1 (some centres undefined) [CAYLOBOLIDE B] | – | 4500 | 12.2
3 | CC[C@H](C)[C@@H]([C@@H](CC(=O)N1CCC[C@H]1[C@H](OC)[C@@H](C)C(=O)N[C@@H](Cc1ccccc1)c1nccs1)OC)N(C)C(=O)[C@@H](NC(=O)[C@H]([C@@H](C)CC)N(C)C)C(C)C [SYMPLOSTATIN 1] | – | 1.5 | –
